# Laboratory results reported in US20220204971A1, “Compositions and Methods for Inhibiting Cancers and Viruses” (Icahn School of Medicine at Mount Sinai, priority 2018, published 2022).
# How the values were obtained:
# HSATII = HSATII RNA RT-qPCR in HCMV-infected HFFs treated with CHX or GCV; type: cell-based, human; conditions: for HSATII levels: HFFs, HCMV 1 TCID50/cell, GCV added after 2 h
# Procedure: FIGS. 2a-d disclose HSATII induction levels in cells infected with active virus as compared to UV-irradiated virus. a HFFs were infected with untreated or UV-irradiated HCMV (TB40/E-GFP) at 3 TCID50/cell, RNA samples were collected at specified times. b HFFs were treated with CHX or DMSO, as a solvent control, 24 h before HCMV (TB40/E-GFP) infection at 1 TCID50/cell. RNA samples were collected at 24 hpi. c HFFs were infected with HCMV (TB40/E-GFP) at 1 TCID50/cell for 2 h and then media was changed for one containing GCV or DMSO as a solvent control. RNA samples were collected at 24 and 48 hpi. d Tetracycline-inducible […] and/or IE2 MRC-5 and ARPE-19 cells were treated with doxycycline. RNA samples were collected at indicated times. a-d RT-qPCR was performed using HSATII-specific primers. GAPDH was used as an internal control. n=3. Data are presented as a fold change mean±SD. a-c ***P<0.001, ****P<0.0001 by the unpaired, two-tailed t-test with (b, c) or without (a) Welch's correction. ns—not significant. Open circles represent single data points.
# (§1) Cyclohexamide (Sigma-Aldrich) and ganciclovir (Sigma-Aldrich) were dissolved in DMSO and used at 100 μg ml^−1 or 50 1.1M concentrations, respectively. Doxycycline (Sigma-Aldrich) was dissolved in water and used at 2 μg ml^−1. Puromycin was dissolved in water and used at 1.5 1.1 g ml^−1 (MRC-5) or 21.1 g ml^−1 (ARPE-19). G418 was dissolved in water and used at 800 μg ml-1 (MRC-5) or 1 mg ml-1 G418 (ARPE-19).
# (§2) For quantitative reverse transcription PCR (qRT-PCR) analysis, cells were collected in QIAzol Lysis Reagent (Qiagen). To fractionate RNA, DNA and proteins chloroform was added; samples were spun at 12,000×g for 15 min. at 4° C. […] Quantitative PCR (qPCR) was performed using SYBR Green master mix (Applied Biosystems by Thermo Fisher Scientific, Foster City, Calif.) on the QuantStudio 6 Flex-Real Time PCR System (Applied Biosystems by Thermo Fisher Scientific). […]
# (§3) Transcript levels were analyzed using the […] method and GAPDH or B2M were used as an internal control. […]
# UL99 = UL99 late gene RNA RT-qPCR in HCMV-infected HFFs treated with GCV; type: cell-based; conditions: HCMV 1 TCID50/cell, 48 hpi
# Procedure: FIG. 12 discloses the accumulation of UL99 gene RNA in the presence of DMSO or GCV in infected cells. HFFs were infected with HCMV (TB40/E-GFP; 1 TCID50/cell) for 2 h and then media was changed for one containing GCV or DMSO as a solvent control. RNA samples were collected at 48 hpi. RT-qPCR was performed using UL99-specific primers. GAPDH was used as an internal control. Data were averaged from at least three experiments and are presented as a fold change mean (SD).
# as §1
# as §2, with “(Qiagen).” for “(Qiagen). To fractionate RNA, DNA and proteins chloroform was added; samples were spun at 12,000×g for 15 min. at 4° C.”
# as §3
# HCMV (TB40-epi) = test: HCMV infectious particle yield from LNA-transfected ARPE-19 epithelial cells, PFU/ml; type: cell-based; conditions: ARPE-19, PFU/ml; 96 hpi
# Procedure: FIG. 26 discloses the effect of HSATII knockdown using four different HSAT-II LNAs on the production of HCMV infectious particles from human retinal pigment cells. Media samples were collected at 96 hpi from ARPE-19 cells transfected with NT-LNA or different HSATII-LNAs 24 h before HCMV (TB40-epi) infection at 1 TCID50/cell. PFU/ml values were determined. Data were averaged from at least three independent experiments and are presented as a mean (SD). Unpaired, two-tailed t-test was used to measure significance. One, two, three or four asterisks represent p<0.05, p<0.01, p<0.001 or p<0.0001, respectively.
# Media samples were collected at 96 hpi from ARPE-19 cells transfected with NT-LNA or different HSATII-LNAs 24 h before HCMV (TB40-epi) infection at 1 TCID50/cell. PFU/ml values were determined. Data were averaged from at least three independent experiments and are presented as a mean (SD). […] Cells treated with the combined HSATII-LNA #1 and HSATII-LNA #2 produced only ˜0.6% of intracellular and ˜1% extracellular HCMV viral particles produced by control cells treated with NT-LNA. To compare, cells treated with HSATII-LNA #1 produced ˜33% of intracellular and ˜6% of extracellular HCMV viral particles produced by control cells treated with NT-LNA. Cells treated with HSATII-LNA #2 produced 23% of intracellular and 6% of extracellular HCMV viral particles produced by control cells treated with NT-LNA. Unpaired, two-tailed t-test was used to measure significance. One, two, three or four asterisks represent p<0.05, p<0.01, p<0.001 or p<0.0001, respectively.
# Locked nucleic acid oligonucleotides were designed to target identified, highly abundant HSATII transcripts from different chromosomal loci. […] Cells were collected at the indicated time post infection using QIAzol buffer (QIAGEN, Hilden, Germany) and stored at −80° C. until sample processing.
Molecule,"extracellular HCMV viral particles, % of those produced by control cells treated with NT-LNA (HCMV (TB40-epi))","intracellular HCMV viral particles, % of those produced by control cells treated with NT-LNA (HCMV (TB40-epi))",other results
C[C@@H]1C[C@@H]([C@H](O)CC2CC(=O)NC(=O)C2)C(=O)[C@@H](C)C1 [Cycloheximide],,,"reduction of HSATII accumulation compared to solvent control (HSATII; HFFs treated with CHX 24 h before HCMV (TB40/E-GFP) infection at 1 TCID50/cell, 24 hpi): 33 fold"
Nc1nc(O)c2ncn(COC(CO)CO)c2n1 [ganciclovir],,,HSATII levels (HSATII; 24 hpi): did not change; HSATII levels (HSATII; 48 hpi): did not change; accumulation of RNA from the late UL99 gene (UL99): blocked
"HSATII-LNA #1: locked nucleic acid oligonucleotide targeting HSATII transcripts, 5′-CCATTCGATAATTCCG-3′ (locked nucleic acid oligonucleotide, LNA positions and linkages not given here)",~6%,~33%,
"HSATII-LNA #2: locked nucleic acid oligonucleotide targeting HSATII transcripts, 5′-GATTCCATTCGATGAT-3′ (locked nucleic acid oligonucleotide, LNA positions and linkages not given here)",6%,23%,
